biological target: GCN2 (Homo sapiens (Human), UniProt Q9P2K8); assay: GCN2 Biochemical Assay (TR-FRET, GFP-eIF2S1 substrate phosphorylation); settings: read-out: IC50 (GCN2 Inhibitory Activity)
Outline: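 TR-FRET readout (Ex 340, Em 490/520 nm) after 2–3 h with Tb-labelled phospho-eIF2S1 antibody in stop mix, following a 70 min room-temperature kinase step. Reaction: in-house GCN2, GFP-eIF2S1, ATP, tRNA in Tris pH 7.5 (2× stocks 1.6 nM, 50 nM, 0.2 mM); compounds tested at 10 concentrations, with a phospho-substrate artifact counter-plate.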

Sequence of GCN2 (Q9P2K8 whole entry): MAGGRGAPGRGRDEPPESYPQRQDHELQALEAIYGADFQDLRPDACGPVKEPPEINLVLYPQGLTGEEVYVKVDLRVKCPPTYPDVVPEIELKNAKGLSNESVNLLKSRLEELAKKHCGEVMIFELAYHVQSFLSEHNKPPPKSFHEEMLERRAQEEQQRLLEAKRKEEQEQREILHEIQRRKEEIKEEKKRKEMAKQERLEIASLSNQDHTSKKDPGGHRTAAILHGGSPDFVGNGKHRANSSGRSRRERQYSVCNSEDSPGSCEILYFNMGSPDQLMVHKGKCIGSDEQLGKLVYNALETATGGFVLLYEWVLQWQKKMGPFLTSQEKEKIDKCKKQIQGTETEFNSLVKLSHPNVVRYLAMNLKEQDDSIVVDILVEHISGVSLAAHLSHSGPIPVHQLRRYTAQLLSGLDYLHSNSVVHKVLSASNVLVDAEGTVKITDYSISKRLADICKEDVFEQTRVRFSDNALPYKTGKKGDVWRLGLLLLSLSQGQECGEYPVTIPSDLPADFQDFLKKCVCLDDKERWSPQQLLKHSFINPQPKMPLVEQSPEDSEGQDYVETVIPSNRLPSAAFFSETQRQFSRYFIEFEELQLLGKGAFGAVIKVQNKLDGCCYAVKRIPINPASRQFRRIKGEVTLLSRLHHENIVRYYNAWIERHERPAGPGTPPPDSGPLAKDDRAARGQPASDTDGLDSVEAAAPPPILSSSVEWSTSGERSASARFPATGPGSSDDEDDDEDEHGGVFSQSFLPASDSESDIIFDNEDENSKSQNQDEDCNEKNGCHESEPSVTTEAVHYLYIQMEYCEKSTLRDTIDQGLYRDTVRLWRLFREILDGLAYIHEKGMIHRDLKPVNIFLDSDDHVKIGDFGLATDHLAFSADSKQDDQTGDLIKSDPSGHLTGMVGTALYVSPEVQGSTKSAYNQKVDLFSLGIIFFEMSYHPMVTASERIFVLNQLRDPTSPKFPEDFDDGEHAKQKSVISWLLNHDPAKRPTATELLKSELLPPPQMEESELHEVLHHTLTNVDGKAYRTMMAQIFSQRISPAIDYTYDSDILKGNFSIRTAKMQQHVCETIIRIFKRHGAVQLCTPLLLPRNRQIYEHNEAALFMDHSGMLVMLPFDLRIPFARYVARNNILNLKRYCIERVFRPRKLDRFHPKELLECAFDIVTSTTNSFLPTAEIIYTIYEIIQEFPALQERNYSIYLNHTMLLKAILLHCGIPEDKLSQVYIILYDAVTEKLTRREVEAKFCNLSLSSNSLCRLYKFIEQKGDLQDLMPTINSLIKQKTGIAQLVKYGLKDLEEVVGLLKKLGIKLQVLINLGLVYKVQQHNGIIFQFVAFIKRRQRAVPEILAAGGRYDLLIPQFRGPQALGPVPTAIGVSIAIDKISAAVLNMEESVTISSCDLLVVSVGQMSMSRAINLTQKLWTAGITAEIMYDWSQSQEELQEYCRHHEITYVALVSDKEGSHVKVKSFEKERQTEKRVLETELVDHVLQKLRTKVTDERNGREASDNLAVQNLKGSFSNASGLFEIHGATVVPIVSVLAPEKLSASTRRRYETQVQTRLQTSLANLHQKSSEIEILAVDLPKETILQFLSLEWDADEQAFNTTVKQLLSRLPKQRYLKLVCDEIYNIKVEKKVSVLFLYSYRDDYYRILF

| Compound | IC50 |
| --- | --- |
| Cc1cnc(Nc2cc(C)n(C)n2)nc1-c1c[nH]c2c(N3Cc4c(cccc4-c4ccnc5[nH]ccc45)C3=O)cccc12 [Example 411, 2-(3-(2-((1,5-dimethyl-1H-pyrazol-3-yl)amino)-5-methylpyrimidin-4-yl)-1H-indol-7-yl)-4-(1H-pyrrolo[2,3-b]pyridin-4-yl)isoindolin-1-one] | < 10 nM |
| Cc1cnc(Nc2cc(C)n(C)n2)nc1-c1c[nH]c2c(N3Cc4c(cccc4-c4ccc(C(=O)N5CCC(=O)CC5)cc4)C3=O)cccc12 [Example 412, 2-(3-(2-((1,5-dimethyl-1H-pyrazol-3-yl)amino)-5-methylpyrimidin-4-yl)-1H-indol-7-yl)-4-(4-(4-oxopiperidine-1-carbonyl)phenyl)isoindolin-1-one] | < 10 nM |
| Cc1cnc(Nc2cc(C)n(C)n2)nc1-c1c[nH]c2c(N3Cc4c(cccc4C4=CCSCC4)C3=O)cccc12 [Example 413, 4-(3,6-dihydro-2H-thiopyran-4-yl)-2-(3-(2-((1,5-dimethyl-1H-pyrazol-3-yl)amino)-5-methylpyrimidin-4-yl)-1H-indol-7-yl)isoindolin-1-one] | < 10 nM |
| Cc1cnc(Nc2cc(C)n(C)n2)nc1-c1c[nH]c2c(N3Cc4c(cccc4-c4cnc(N(C)C)nc4)C3=O)cccc12 [Example 414, 2-(3-(2-((1,5-dimethyl-1H-pyrazol-3-yl)amino)-5-methylpyrimidin-4-yl)-1H-indol-7-yl)-4-(2-(dimethylamino)pyrimidin-5-yl)isoindolin-1-one] | < 10 nM |
| Cc1cnc(Nc2cc(C)n(C)n2)nc1-c1c[nH]c2c(N3Cc4c(cccc4-c4cnn(CC5CC5)c4)C3=O)cccc12 [Example 415, 4-(1-(cyclopropylmethyl)-1H-pyrazol-4-yl)-2-(3-(2-((1,5-dimethyl-1H-pyrazol-3-yl)amino)-5-methylpyrimidin-4-yl)-1H-indol-7-yl)isoindolin-1-one] | < 10 nM |
| Cc1cnc(Nc2cc(C)n(C)n2)nc1-c1c[nH]c2c(N3Cc4c(cccc4-c4cnn(CCN5CCOCC5)c4)C3=O)cccc12 [Example 416, 2-(3-(2-((1,5-dimethyl-1H-pyrazol-3-yl)amino)-5-methylpyrimidin-4-yl)-1H-indol-7-yl)-4-(1-(2-morpholinoethyl)-1H-pyrazol-4-yl)isoindolin-1-one] | < 10 nM |
| Cc1cnc(Nc2cc(C)n(C)n2)nc1-c1c[nH]c2c(N3Cc4c(cccc4-c4cncnc4)C3=O)cccc12 [Example 417, 2-(3-(2-((1,5-dimethyl-1H-pyrazol-3-yl)amino)-5-methylpyrimidin-4-yl)-1H-indol-7-yl)-4-(pyrimidin-5-yl)isoindolin-1-one] | < 10 nM |
| Cc1cnc(Nc2cc(C)n(C)n2)nc1-c1c[nH]c2c(N3Cc4c(cccc4-c4cnc(N)nc4)C3=O)cccc12 [Example 418, 4-(2-aminopyrimidin-5-yl)-2-(3-(2-((1,5-dimethyl-1H-pyrazol-3-yl)amino)-5-methylpyrimidin-4-yl)-1H-indol-7-yl)isoindolin-1-one] | < 10 nM |
| Cc1cnc(Nc2cc(C)n(C)n2)nc1-c1c[nH]c2c(N3Cc4c(cccc4-c4cncc(N)c4)C3=O)cccc12 [Example 419, 4-(5-aminopyridin-3-yl)-2-(3-(2-((1,5-dimethyl-1H-pyrazol-3-yl)amino)-5-methylpyrimidin-4-yl)-1H-indol-7-yl)isoindolin-1-one] | < 10 nM |
| Cc1cnc(Nc2cc(C)n(C)n2)nc1-c1c[nH]c2c(N3Cc4c(cccc4-c4ccc(N)nc4)C3=O)cccc12 [Example 420, 4-(6-aminopyridin-3-yl)-2-(3-(2-((1,5-dimethyl-1H-pyrazol-3-yl)amino)-5-methylpyrimidin-4-yl)-1H-indol-7-yl)isoindolin-1-one] | < 10 nM |
| Cc1cnc(Nc2cc(C)n(C)n2)nc1-c1c[nH]c2c(N3Cc4c(cccc4-c4ccncn4)C3=O)cccc12 [Example 421, 2-(3-(2-((1,5-dimethyl-1H-pyrazol-3-yl)anlino)-5-methylpyrimidin-4-yl)-1H-indol-7-yl)-4-(pyrimidin-4-yl)isoindolin-1-one] | < 10 nM |
| Cc1cnc(Nc2cc(C)n(C)n2)nc1-c1c[nH]c2c(N3Cc4c(cccc4-c4ccnc(N)n4)C3=O)cccc12 [Example 422, 4-(2-aminopyrimidin-4-yl)-2-(3-(2-((1,5-dimethyl-1H-pyrazol-3-yl)amino)-5-methylpyrimidin-4-yl)-1H-indol-7-yl)isoindolin-1-one] | < 10 nM |
| Cc1cnc(Nc2cc(C)n(C)n2)nc1-c1c[nH]c2c(N3Cc4c(cccc4-c4cc(N5CCN(C)CC5)ccn4)C3=O)cccc12 [Example 423, 2-(3-(2-((1,5-dimethyl-1H-pyrazol-3-yl)amino)-5-methylpyrimidin-4-yl)-1H-indol-7-yl)-4-(4-(4-methylpiperazin-1-yl)pyridin-2-yl)isoindolin-1-one] | < 10 nM |
| Cc1cnc(Nc2cc(C)n(C)n2)nc1-c1c[nH]c2c(N3Cc4c(cccc4-c4cnc(N5CCNCC5)nc4)C3=O)cccc12 [Example 424, 2-(3-(2-((1,5-dimethyl-1H-pyrazol-3-yl)amino)-5-methylpyrimidin-4-yl)-1H-indol-7-yl)-4-(2-(piperazin-1-yl)pyrimidin-5-yl)isoindolin-1-one] | < 10 nM |
| Cc1cnc(Nc2cc(C)n(C)n2)nc1-c1c[nH]c2c(N3Cc4c(cccc4-c4ccc(N5CCOCC5)nc4)C3=O)cccc12 [Example 425, 2-(3-(2-((1,5-dimethyl-1H-pyrazol-3-yl)amino)-5-methylpyrimidin-4-yl)-1H-indol-7-yl)-4-(6-morpholinopyridin-3-yl)isoindolin-1-one] | < 10 nM |
| Cc1cnc(Nc2cc(C)n(C)n2)nc1-c1c[nH]c2c(N3Cc4c(cccc4-c4ccc(N5CCN(C)CC5)cc4)C3=O)cccc12 [Example 426, 2-(3-(2-((1,5-dimethyl-1H-pyrazol-3-yl)amino)-5-methylpyrimidin-4-yl)-1H-indol-7-yl)-4-(4-(4-methylpiperazin-1-yl)phenyl)isoindolin-1-one] | < 10 nM |
| Cc1cnc(Nc2cc(C)n(C)n2)nc1-c1c[nH]c2c(N3Cc4c(cccc4-c4cc(F)nc(F)c4)C3=O)cccc12 [Example 427, 4-(2,6-difluoropyridin-4-yl)-2-(3-(2-((1,5-dimethyl-1H-pyrazol-3-yl)amino)-5-methylpyrimidin-4-yl)-1H-indol-7-yl)isoindolin-1-one] | < 10 nM |
| Cc1cnc(Nc2cc(C)n(C)n2)nc1-c1c[nH]c2c(N3Cc4c(cccc4-c4c(F)cncc4F)C3=O)cccc12 [Example 428, 4-(3,5-difluoropyridin-4-yl)-2-(3-(2-((1,5-dimethyl-1H-pyrazol-3-yl)amino)-5-methylpyrimidin-4-yl)-1H-indol-7-yl)isoindolin-t-one] | < 10 nM |
| Cc1cc(-c2cccc3c2CN(c2cccc4c(-c5nc(Nc6cc(C)n(C)n6)ncc5C)c[nH]c24)C3=O)ccn1 [Example 429, 2-(3-(2-((1,5-dimethyl-1H-pyrazol-3-yl)amino)-5-methylpyrimidin-4-yl)-1H-indol-7-yl)-4-(2-methylpyridin-4-yl)isoindolin-1-one] | < 10 nM |
| Cc1cnc(Nc2cc(C)n(C)n2)nc1-c1c[nH]c2c(N3Cc4c(cccc4-c4ccc5c(c4)CNC5)C3=O)cccc12 [Example 430, 2-(3-(2-((1,5-dimethyl-1H-pyrazol-3-yl)amino)-5-methylpyrimidin-4-yl)-1H-indol-7-yl)-[4,5′-biisoindolin]-1-one] | < 10 nM |
| Cc1cnc(Nc2cc(C)n(C)n2)nc1-c1c[nH]c2c(N3Cc4c(cccc4-c4cccnc4F)C3=O)cccc12 [Example 431, 2-(3-(2-((1,5-dimethyl-1H-pyrazol-3-yl)amino)-5-methylpyrimidin-4-yl)-1H-indol-7-yl)-4-(2-fluoropyridin-3-yl)isoindolin-1-one] | < 10 nM |
| Cc1cnc(Nc2cc(C)n(C)n2)nc1-c1c[nH]c2c(N3Cc4c(cccc4-c4ccc(C#N)cc4)C3=O)cccc12 [Example 432, 4-(2-(3-(2-((1,5-dimethyl-1H-pyrazol-3-yl)amino)-5-methylpyrimidin-4-yl)-1H-indol-7-yl)-1-oxoisoindolin-4-yl)benzonitrile] | < 10 nM |
| Cc1cnc(Nc2cc(C)n(C)n2)nc1-c1c[nH]c2c(N3Cc4c(cccc4-c4ccc(C#N)cc4F)C3=O)cccc12 [Example 433, 4-(2-(3-(2-((1,5-dimethyl-1H-pyrazol-3-yl)amino)-5-methylpyrimidin-4-yl)-1H-indol-7-yl)-1-oxoisoindolin-4-yl)-3-fluorobenzonitrile] | 10 to 100 nM |
| Cc1cnc(Nc2cc(C)n(C)n2)nc1-c1c[nH]c2c(N3Cc4c(cccc4-c4ccccc4C(F)(F)F)C3=O)cccc12 [Example 434, 2-(3-(2-((1,5-dimethyl-1H-pyrazol-3-yl)amino)-5-methylpyrimidin-4-yl)-1H-indol-7-yl)-4-(2-(trifluoromethyl)phenyl)isoindolin-1-one] | 100 to 1000 nM |
| COc1ncccc1-c1cccc2c1CN(c1cccc3c(-c4nc(Nc5cc(C)n(C)n5)ncc4C)c[nH]c13)C2=O [Example 435, 2-(3-(2-((1,5-dimethyl-1H-pyrazol-3-yl)amino)-5-methylpyrimidin-4-yl)-1H-indol-7-yl)-4-(2-methoxypyridin-3-yl)isoindolin-1-one] | < 10 nM |
| Cc1cnc(Nc2cc(C)n(C)n2)nc1-c1c[nH]c2c(N3Cc4c(cccc4-c4ccc(N(C)C)cc4)C3=O)cccc12 [Example 436, 2-(3-(2-((1,5-dimethyl-1H-pyrazol-3-yl)amino)-5-methylpyrimidin-4-yl)-1H-indol-7-yl)-4-(4-(dimethylamino)phenyl)isoindolin-1-one] | 10 to 100 nM |
| Cc1cnc(Nc2cc(C)n(C)n2)nc1-c1c[nH]c2c(N3Cc4c(cccc4-c4ccccc4CO)C3=O)cccc12 [Example 437, 2-(3-(2-((1,5-dimethyl-1H-pyrazol-3-yl)amino)-5-methylpyrimidin-4-yl)-1H-indol-7-yl)-4-(2-(hydroxymethyl)phenyl)isoindolin-1-one] | < 10 nM |
| COc1ccccc1-c1cccc2c1CN(c1cccc3c(-c4nc(Nc5cc(C)n(C)n5)ncc4C)c[nH]c13)C2=O [Example 438, 2-(3-(2-((1,5-dimethyl-1H-pyrazol-3-yl)amino)-5-methylpyrimidin-4-yl)-1H-indol-7-yl)-4-(2-methoxyphenyl)isoindolin-1-one] | 10 to 100 nM |

From patent US20240025884A1 (Dong-A ST Co., Ltd., priority 2022, published 2024)
